Measured values from PubChem BioAssay (NCI).
Values joined by “and” are separate entries in the source; they are usually repeats but may differ in a detail not shown here. Equal entries are not always repeated.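 Method: 48-hour compound exposure of cells in 96-well plates, five concentrations, linear interpolation of endpoints. GI50 is the concentration that inhibits growth by half. The concentration for full growth arrest is given as TGI.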

How the values were obtained:
Assay in all cases: NCI tumour cell line growth inhibition, 48 h
MDA-MB-231 breast = test system: MDA-MB-231 breast
MALME-3M melanoma = test system: MALME-3M melanoma
LOX IMVI melanoma = test system: LOX IMVI melanoma
RPMI-8226 leukemia = test system: RPMI-8226 leukemia
MDA-MB-435 = test system: MDA-MB-435
MOLT-4 leukemia = test system: MOLT-4 leukemia
SF-268 CNS = test system: SF-268 CNS
A498 renal = test system: A498 renal
HCC-2998 colon = test system: HCC-2998 colon
SR leukemia = test system: SR leukemia

Structure (SMILES) | TGI (MDA-MB-231 breast) [µM] | TGI (MALME-3M melanoma) [µM] | TGI (LOX IMVI melanoma) [µM] | TGI (RPMI-8226 leukemia) [µM] | TGI (MDA-MB-435) | TGI (MOLT-4 leukemia) [µM] | TGI (SF-268 CNS) [µM] | TGI (A498 renal) [µM] | TGI (HCC-2998 colon) [µM] | TGI (SR leukemia) [µM] | GI50 (MALME-3M melanoma) [µM] | GI50 (LOX IMVI melanoma) [µM] | GI50 (SR leukemia) [µM] | GI50 (MDA-MB-435) [µM] | GI50 (MOLT-4 leukemia) [µM]
Cc1ccc(NC(=O)C(Cc2c[nH]c3ccccc23)NC(=O)Oc2ccccc2)cc1C (stereo not drawn) | > 100 | 99.5 | > 100 | 80.9 | > 100 µM | > 100 | > 100 | 88.4 | – | – | – | – | – | – | –
COC(=O)C1C=CCON2CCc3c(n(C)c4ccccc34)C12 (stereo not drawn) | – | > 100 | > 100 | > 100 | – | > 100 | > 100 | > 100 | > 100 | > 100 | – | – | – | – | –
O=c1sc2c(s1)-c1sc(=O)sc1SS2 | > 100 | > 100 | > 100 | > 100 | > 100 µM | > 100 | > 100 | > 62.2 | > 100 | – | – | – | – | – | –
COc1cc2cc(C(=O)N3CC(CCl)c4c3cc(NC(=O)OCc3ccc([N+](=O)[O-])cc3)c3ccccc43)[nH]c2c(OC)c1OC (stereo not drawn) | > 81.5 | > 100 | > 100 | > 100 | > 100 µM | > 100 | > 81.2 | – | 16.3 | – | – | – | – | – | –
c1ccc(CN[C@]23C4C5CC6C7C5C2C7[C@@](NCc2ccccc2)(C64)N3Cc2ccccc2)cc1 (stereo partly drawn) | > 100 | > 100 | > 100 | > 100 | > 100 µM | > 100 | > 100 | > 100 | – | > 100 | – | – | – | – | –
CSC1C(=O)Nc2ccc3ccccc3c21 (stereo not drawn) | 56.5 | > 100 | 31 | 60.7 | > 100 µM | > 100 | 38 | – | > 100 | – | – | – | – | – | –
Cc1c(CCO)c(=O)n2c([nH]c3ccccc32)c1C#N | – | > 100 | > 100 | > 100 | – | – | > 100 | > 100 | > 100 | – | – | – | – | – | –
CCCCCCCCCCCCc1ccc(S(=O)(=O)O)cc1.[Zn+2] | > 100 | > 100 | > 100 | > 100 | > 100 µM | > 100 | > 100 | 95.9 | > 100 | – | – | – | – | – | –
COc1cc(C2=NNC(=O)c3ccccc3N2c2nc(-c3cccs3)nc3ccc(Br)cc23)cc(OC)c1OC | > 100 | 59.1 | – | 12.9 | 68.5 µM | – | 58.4 | 91.9 | – | – | – | – | – | – | –
COc1cc(C2SC(C)C(=O)N2c2ccc(-c3csc(NS(=O)(=O)c4ccc(Cl)c(OC)c4)n3)cc2)ccc1O (stereo not drawn) | > 100 | 82.4 | > 100 | – | > 100 µM | > 100 | 84.6 | > 100 | – | > 100 | – | – | – | – | –
CCN(CC)c1ccc(N=Nc2ccc([N+](=O)[O-])cc2OC(=O)/C=C/c2ccccc2)c(OC(=O)/C=C/c2ccccc2)c1 | – | > 100 | > 100 | > 100 | – | > 100 | > 100 | > 58.4 | > 100 | > 100 | – | – | – | – | –
O=C(CCCCCC(=O)N1CC(CCl)c2ccc([N+](=O)[O-])cc21)N1CC(CCl)c2ccc([N+](=O)[O-])cc21 (stereo not drawn) | > 100 | – | > 100 | – | > 100 µM | > 100 | > 100 | > 100 | > 100 | 88.8 | – | – | – | – | –
Cc1ccc(C(=O)N(Cc2ccccc2)Cc2ccccc2)cc1N=NN(C)C | 78 | 40.6 | 15.6 | > 100 | 54.8 µM | > 100 | > 100 | – | 96 | > 100 | – | – | – | – | –
O=[N+]([O-])c1ccc(C(Nc2ccccc2)P(c2ccccc2)c2ccccc2)cc1 (stereo not drawn) | > 100 | > 100 | > 100 | – | > 100 µM | > 100 | > 100 | > 100 | – | > 100 | – | – | – | – | –
CCn1c(SC(C)C(=O)c2c(C)n(C)n(-c3ccccc3)c2=O)nc2ccccc2c1=O (stereo not drawn) | – | > 100 | > 100 | > 100 | – | > 100 | > 100 | > 100 | – | > 100 | – | – | – | – | –
O=C1c2ccccc2C(=O)c2c(O)c(NCCCNCCO)cc(O)c21 | – | 31.2 | – | 25.5 | – | 14 | 23.1 | 33.1 | 17 | – | – | – | – | – | –
CC1(C)O[C@@H](CCl)C[C@H](C#N)O1 | – | > 100 | > 100 | > 100 | – | > 100 | > 100 | > 100 | > 100 | > 100 | – | – | – | – | –
CCCCCc1nnc(NS(=O)(=O)c2ccc(NC(=O)OCC(C)C)cc2)s1 | > 100 | 94.6 | > 100 | 41.4 | > 100 µM | 54 | > 100 | 24.6 | – | 36.9 | – | – | – | – | –
COc1cc(CNc2cnc3cc(N)ccc3n2)cc(OC)c1OC | – | > 100 | > 100 | – | – | > 100 | > 100 | > 100 | > 100 | > 100 | – | – | – | – | –
COc1cc([C@@H]2c3cc4c(cc3[C@@H](Nc3ccccc3C(=O)c3ccccc3)[C@H]3COC(=O)[C@H]23)OCO4)cc(OC)c1OC | > 66.1 | > 100 | > 100 | – | 1.26 µM | > 100 | > 100 | – | > 28.7 | – | – | – | – | – | –
CC1=NN(C(=O)CC(=O)Nc2ccccc2Cl)C(=O)C1N=Nc1ccc(S(=O)(=O)c2ccc(N=NC3C(=O)N(C(=O)CC(=O)Nc4ccccc4Cl)N=C3C)cc2)cc1 (stereo not drawn) | > 100 | > 100 | > 100 | > 100 | > 100 µM | > 100 | > 100 | – | > 100 | > 100 | – | – | – | – | –
CCOC(=O)c1c(Br)c(-c2ccc(OC)cc2)c(Br)n1C | > 100 | 44.4 | 41.6 | > 100 | 7.71 µM and 29.3 µM | > 100 | > 100 | 49.6 | – | 78.3 | 9.99 | 17.5 | 13.3 | 4.47 | 17.8
CCOP(=O)(OCC)C(c1ccccc1)N(C(=O)NC(F)(F)F)c1cccc(F)c1 (stereo not drawn) | > 100 | > 100 | > 100 | > 100 | > 100 µM | > 100 | > 100 | – | > 100 | > 100 | – | – | – | – | –
